Here are results for 13 compounds from patent publication US20210238187A1, “AZIRIDINE CONTAINING EPOTHILONE ANALOGS, METHODS OF SYNTHESIS, METHODS OF TREATMENT, AND DRUG CONJUGATES” (WILLIAM MARSH RICE UNIVERSITY, priority 2017, published 2021).

The subject of one test is OVCAR-8. In words: Cytotoxicity (GI50) assay, OVCAR-8. The test is classed as cell-based, human. Conditions: OVCAR-8; human ovarian cancer cell line; read-out: Cancer cell lines GI50, OVCAR-8.
Another test relates to MES SA DX. As to the kind of experiment: Cytotoxicity assay (CellTiter-Glo), MES SA DX. The test is classed as cell-based, human. The note with it: Homo sapiens; MES SA cell line with marked multidrug resistance; 72 hours, CellTiter-Glo; read-out: Cancer cell lines IC50, MES SA DX.
The next test relates to NCI/ADR-RES. In words: Cytotoxicity (GI50) assay, NCI/ADR-RES. Conditions: highly drug resistant human ovarian cancer cell line, read-out: Cancer cell lines GI50, NCI/ADR-RES. The format is cell-based, human.
The subject of a further test is Tubulin. As to the kind of experiment: Tubulin assembly induction. The format is biochemical.
A further test concerns MES SA. In words: Cytotoxicity assay (CellTiter-Glo), MES SA. The format is cell-based, human. The note with it: MES-SA; human uterine sarcoma cell line; 72 hours, CellTiter-Glo; read-out: Cancer cell lines IC50, MES SA.
In a further test the test system is MDA-MB-435. In words: Cytotoxicity (GI50) assay, MDA-MB-435. The format is cell-based, human. Conditions: MDA-MB-435; human melanoma cell line; read-out: Cancer cell lines GI50, MDA-MB-435.
The next test has as its system MCF-7. In words: Cytotoxicity (GI50) assay, MCF-7. The test is classed as cell-based, human. The note with it: MCF7; human breast cancer cell line; concentration required to decrease cell growth by 50%; read-out: Cancer cell lines GI50, MCF-7.
Another test relates to SNB-75. In words: Cytotoxicity (GI50) assay, SNB-75. The test is classed as cell-based, human. Conditions: SNB-75; human glioblastoma cell line; read-out: Cancer cell lines GI50, SNB-75.

Each structure is given as a SMILES string. Where two headings read alike, the source gives them in different places.

By IC50 is commonly meant the concentration needed to halve the response being measured. In general, EC50 refers to the concentration needed to bring the measured effect to its halfway point.

Regarding `C/C(=C\c1csc(N)n1)[C@@H]1C[C@@H]2N(CCO)[C@]2(C)CCC[C@H](C)[C@H](O)[C@@H](C)C(=O)C(C)(C)[C@@H](O)CC(=O)O1` (stereo partly drawn) [compound 15, (1S,3S,7S,10R,11S,12S,16R)-3-[(1E)-1-(2-Amino-1,3-thiazol-4-yl)prop-1-en-2-yl]-7,11-dihydroxy-17-(2-hydroxyethyl)-8,8,10,12,16-pentamethyl-4-oxa-17-azabicyclo[14.1.0]heptadecane-5,9-dione], the GI50 in the test with OVCAR-8 was 290 nM; in the test on NCI/ADR-RES (Homo sapiens, NCI/ADR-RES) it was 3800 nM; with MDA-MB-435 it was 220 nM; in the test with MCF-7, 330 nM; in the test with SNB-75, 280 nM. The IC50 was more than 1000 nM in the test on MES SA DX and 36.4 nM in the test on MES SA. The compound further returned an EC50 with Tubulin ([…]) of 13000 nM.
In the case of `CSc1nc(/C=C(\C)[C@@H]2C[C@@H]3N(CCN=[N+]=[N-])[C@]3(C)CCC[C@H](C)[C@H](O)[C@@H](C)C(=O)C(C)(C)[C@@H](O)CC(=O)O2)cs1` (stereo partly drawn) [compound 34, (1S,3S,7S,10R,11S,12S,16R)-17-(2-Azidoethyl)-7,11-dihydroxy-8,8,10,12,16-pentamethyl-3-{(1E)-1-[2-(methylsulfanyl)-1,3-thiazol-4-yl]prop-1-en-2-yl}-4-oxa-17-azabicyclo[14.1.0]heptadecane-5,9-dione], the GI50 with OVCAR-8 was 15 nM; in the test with NCI/ADR-RES (Homo sapiens, NCI/ADR-RES), 3.2 to 8.8 nM; with NCI/ADR-RES it was 3.2 nM; with MDA-MB-435, 7.3 nM; with MCF-7 it was 13 nM; in the test on SNB-75, 22 nM. For the same compound, the values for the IC50 with MES SA DX and in the test with MES SA were 0.52 nM and 0.24 nM, respectively. The compound further displayed an EC50 in the test on Tubulin ([…]) of 5400 nM.
Take `CSc1nc(/C=C(\C)[C@@H]2C[C@@H]3N(CC4CC4)[C@]3(C)CCC[C@H](C)[C@H](O)[C@@H](C)C(=O)C(C)(C)[C@@H](O)CC(=O)O2)cs1` (stereo partly drawn) [compound 38, (1S,3S,7S,10R,11S,12S,16R)-17-(Cyclopropylmethyl)-7,11-dihydroxy-8,8,10,12,16-pentamethyl-3-{(1E)-1-[2-(methylsulfanyl)-1,3-thiazol-4-yl]prop-1-en-2-yl}-4-oxa-17-azabicyclo-[14.1.0]heptadecane-5,9-dione]: the GI50 with OVCAR-8 was determined as 15 nM; in the test with NCI/ADR-RES (Homo sapiens, NCI/ADR-RES), 18 nM; in the test with MDA-MB-435, 9.5 nM; in the test with MCF-7 it was 18 nM; with SNB-75 it was 16 nM. Besides, the IC50 stood at 1.26 nM in the test with MES SA DX and 0.056 nM in the test on MES SA. Further, in the test with Tubulin ([…]), the response was half-maximal at 5100 nM (EC50).
For `C/C(=C\c1ccccn1)[C@@H]1C[C@@H]2N(CCO)[C@]2(C)CCC[C@H](C)[C@H](O)[C@@H](C)C(=O)C(C)(C)[C@@H](O)CC(=O)O1` (stereo partly drawn) [compound 21, (1S,3S,7S,10R,11S,12S,16R)-7,11-Dihydroxy-17-(2-hydroxyethyl)-8,8,10,12,16-pentamethyl-3-[(1E)-1-(pyridin-2-yl)prop-1-en-2-yl]-4-oxa-17-azabicyclo[14.1.0]heptadecane-5,9-dione], the GI50 with OVCAR-8 is 170 nM; in the test with NCI/ADR-RES (Homo sapiens, NCI/ADR-RES), 4000 nM; with MDA-MB-435, 30 nM; with MCF-7, 250 nM; in the test on SNB-75, 98 nM. Moreover, the IC50 with MES SA DX was 764 nM; in the test with MES SA, 0.685 nM. The same compound gave an EC50 in the test with Tubulin ([…]) of more than 60000 nM.
On to `CSc1nc(/C=C(\C)[C@@H]2C[C@@H]3N(CCO)[C@]3(C)CCC[C@H](C)[C@H](O)[C@@H](C)C(=O)C(C)(C)[C@@H](O)CC(=O)O2)cs1` (stereo partly drawn) [compound 12, (1S,3S,7S,10R,11S,12S,16R)-7,11-Dihydroxy-17-(2-hydroxyethyl)-8,8,10,12,16-pentamethyl-3-{(1E)-1-[2-(methylsulfanyl)-1,3-thiazol-4-yl]prop-1-en-2-yl}-4-oxa-17-azabicyclo[14.1.0]-heptadecane-5,9-dione], for which the GI50 with OVCAR-8 was found to be 75 nM; in the test with NCI/ADR-RES (Homo sapiens, NCI/ADR-RES) it was 55 nM; in the test with MDA-MB-435 it was 42 nM; in the test on MCF-7, 28 nM; in the test on SNB-75, 60 nM. In addition, the IC50 was 0.66 nM in the test with MES SA DX and 0.13 nM with MES SA. The same compound displayed a 50% effective concentration (EC50) in the test on Tubulin ([…]) of 14000 nM.
For `CSc1nc(/C=C(\C)[C@@H]2C[C@@H]3N(CCN)[C@]3(C)CCC[C@H](C)[C@H](O)[C@@H](C)C(=O)C(C)(C)[C@@H](O)CC(=O)O2)cs1` (stereo partly drawn) [compound 37, (1S,3S,7S,10R,11S,12S,16R)-17-(2-Aminoethyl)-7,11-dihydroxy-8,8,10,12,16-pentamethyl-3-{(1E)-1-[2-(methylsulfanyl)-1,3-thiazol-4-yl]prop-1-en-2-yl}-4-oxa-17-azabicyclo[14.1.0]heptadecane-5,9-dione], the GI50 in the test with OVCAR-8 came to 63 nM; with NCI/ADR-RES (Homo sapiens, NCI/ADR-RES), 70 nM; with MDA-MB-435, 15 nM; in the test with MCF-7, 14 nM; in the test on SNB-75, 23 nM. Also, the IC50 was found to be 12 nM with MES SA DX and 0.108 nM in the test with MES SA. For the same compound, in the test with Tubulin ([…]), a half-maximal effect (EC50) was put at 6100 nM.
With `C/C(=C\c1csc(CN)n1)[C@@H]1C[C@@H]2N(CCO)[C@]2(C)CCC[C@H](C)[C@H](O)[C@@H](C)C(=O)C(C)(C)[C@@H](O)CC(=O)O1` (stereo partly drawn) [compound 13, (1S,3S,7S,10R,11S,12S,16R)-3-{(1E)-1-[2-(Aminomethyl)-1,3-thiazol-4-yl]prop-1-en-2-yl}-7,11-dihydroxy-17-(2-hydroxyethyl)-8,8,10,12,16-pentamethyl-4-oxa-17-azabicyclo[14.1.0]heptadecane-5,9-dione], the GI50 in the test on OVCAR-8 was 93 nM; in the test with NCI/ADR-RES (Homo sapiens, NCI/ADR-RES), 2800 nM; in the test on MDA-MB-435, 20 nM; in the test on MCF-7, 65 nM; in the test with SNB-75, 130 nM. In addition, the IC50 stood at 0.85 nM in the test with MES SA DX and 0.078 nM with MES SA. Besides, the half-maximal effective concentration (EC50) in the test with Tubulin ([…]) was more than 60000 nM.
Regarding `C/C(=C\c1csc(C)n1)[C@@H]1C[C@@H]2N(CCO)[C@]2(C)CCC[C@H](C)[C@H](O)[C@@H](C)C(=O)C(C)(C)[C@@H](O)CC(=O)O1` (stereo partly drawn) [compound 11, (1S,3S,7S,10R,11S,12S,16R)-7,11-Dihydroxy-17-(2-hydroxyethyl)-8,8,10,12,16-pentamethyl-3-[(1E)-1-(2-methyl-1,3-thiazol-4-yl)prop-1-en-2-yl]-4-oxa-17-azabicyclo[14.1.0]heptadecane-5,9-dione], the GI50 worked out at 4.5 nM in the test on OVCAR-8; 55 nM in the test with NCI/ADR-RES (Homo sapiens, NCI/ADR-RES); 3 nM in the test with MCF-7. The IC50 turned out to be 13.7 nM in the test with MES SA DX and 0.94 nM in the test with MES SA. Also, it took 18000 nM to reach a half-maximal effect in the test with Tubulin ([…]) (EC50).
Turning to `CSc1cc(/C=C(\C)[C@@H]2C[C@@H]3N(CCO)[C@]3(C)CCC[C@H](C)[C@H](O)[C@@H](C)C(=O)C(C)(C)[C@@H](O)CC(=O)O2)nn1C` (stereo partly drawn) [compound 23, (1S,3S,7S,10R,11S,12S,16R)-7,11-Dihydroxy-17-(2-hydroxyethyl)-8,8,10,12,16-pentamethyl-3-{(1E)-1-[1-methyl-5-(methylsulfanyl)-1H-pyrazol-3-yl]prop-1-en-2-yl}-4-oxa-17-azabicyclo[14.1.0]heptadecane-5,9-dione], the GI50 with OVCAR-8 is 10 nM; in the test on MDA-MB-435, 12 nM; in the test with MCF-7 it was 78 nM; in the test on SNB-75 it was 10 nM. Further, the IC50 in the test on MES SA DX stood at 37.8 nM; with MES SA it was 0.22 nM. Moreover, in the test on Tubulin ([…]), the EC50 was 4600 nM.
On to `C/C(=C\c1csc(C)n1)[C@@H]1C[C@@H]2N[C@]2(C)CCC[C@H](C)[C@H](O)[C@@H](C)C(=O)C(C)(C)[C@@H](O)CC(=O)O1` [compound 10, (1S,3S,7S,10R,11S,12S,16R)-7,11-Dihydroxy-8,8,10,12,16-pentamethyl-3-[(1E)-1-(2-methyl-1,3-thiazol-4-yl)prop-1-en-2-yl]-4-oxa-17-azabicyclo[14.1.0]heptadecane-5,9-dione], for which the GI50 in the test on OVCAR-8 is 1.5 nM; in the test with NCI/ADR-RES (Homo sapiens, NCI/ADR-RES), 35 nM; with MCF-7 it was 2 nM. For the same compound, the IC50 with MES SA DX was determined as 0.51 nM; with MES SA, 0.04 nM. The compound also yielded an EC50 in the test on Tubulin ([…]) of 19000 nM.
As for `CC(=Cc1csc(C)n1)C1CC=CCCCC(C)C(O)C(C)C(=O)C(C)(C)C(O)CC(=O)O1` (centres unmarked) [compound 3, epothilone C, reference compound], the GI50 came out at 110 nM in the test on OVCAR-8 and 70 nM with MCF-7. In the test on Tubulin, this compound yielded an EC50 of 18000 nM. Further, in the test with MES SA, the IC50 amounted to 31.5 nM.
Consider `C/C(=C\c1csc(C)n1)[C@@H]1C[C@@H]2O[C@]2(C)CCC[C@H](C)[C@H](O)[C@@H](C)C(=O)C(C)(C)[C@@H](O)CC(=O)N1` [compound 5, ixabepilone, reference compound], for which, in the test with NCI/ADR-RES (Homo sapiens, NCI/ADR-RES), the GI50 is 1400 nM. This compound also had an EC50 in the test with Tubulin ([…]) of 4500 nM.
Take `CSc1nc(/C=C(\C)[C@@H]2C[C@@H]3N[C@]3(C)CCC[C@H](C)[C@H](O)[C@@H](C)C(=O)C(C)(C)[C@@H](O)CC(=O)O2)cs1` [compound 14, (1S,3S,7S,10R,11S,12S,16R)-7,11-Dihydroxy-8,8,10,12,16-pentamethyl-3-{(1E)-1-[2-(methyl-sulfanyl)-1,3-thiazol-4-yl]prop-1-en-2-yl}-4-oxa-17-azabicyclo[14.1.0]heptadecane-5,9-dione]: the GI50 was found to be 16 nM with OVCAR-8, 4.5 nM in the test with MDA-MB-435, 4 nM with MCF-7 and 11 nM in the test on SNB-75. The IC50 amounted to 5.66 nM in the test on MES SA DX and 0.28 nM in the test on MES SA. Besides, in the test on Tubulin ([…]), the EC50 is 5000 nM.
